Measured values published in patent US20110195432A1, “METHODS FOR THE SELECTION OF THERAPEUTIC TREATMENTS FOR CANCER” (priority 2008, published 2011).

Experiments:
AR [1] = test: Western blot of AR protein levels, LNCaP cells; format: cell-based
Method: Immunoprecipitation and immunoblotting were performed as described (Qian et al., Clin. Cancer Res. 12:634-42, 2006). The following antibodies used in immunoblotting or immunoprecipitations (indicated dilutions are for immunoblotting): AR (1:1000, #06-680 Upstate, Billerica, Mass.); acetylated lysine (#05-515 Upstate, Billerica, Mass.); acetylated tubulin (1:2000, #T6793 Sigma, St. Louis, Mo.); alpha-tubulin (1:10,000, #T6074 Sigma, St. Louis, Mo.); beta-actin (1:5000, #A5441 Sigma, St. Louis, Mo.); ERG-1/2/3, (1:5000, #sc-354X Santa Cruz, Santa Cruz, Calif.); FLAG epitope (#F7425 Sigma, St. Louis, Mo.); GAPDH (1:5000, #sc-32233 Santa Cruz, Santa Cruz, Calif.); HDAC6 (1:1000, #sc-11420 Santa Cruz); HSP90 (1:1000, #SPA-840 Stressgen, Ann Arbor, Mich.); mouse IgG (#sc-2025 Santa Cruz, Santa Cruz, Calif.). The following secondary antibodies were used: ECL-conjugated anti-mouse IgG, (1:5000, #A6782 Sigma, St. Louis, Mo.); ECL-conjugated anti-rabbit IgG (1:3000, #NA934 Amersham, Piscataway, N.J. or 1:10,000, #sc-2004 Santa Cruz, Santa Cruz, Calif.). X-ray exposures were scanned as uncompressed images and bands were quantified by densitometry with Quantity One software (Bio-Rad, Hercules, Calif.). Intensity values were normalized to those of the endogenous controls. The vehicle sample was set to 1. Enrichment was calculated as: (intensity IP/intensity input)/(intensity IgG/intensity input) or intensity IP/input (FIG. 1B).
LNCaP cells were treated with sulforaphane in a dose-response (5 μM to 20 μM) and time-course (12 and 24 hours) manner to investigate the effect of HDAC6 inhibition on AR protein levels. Western blotting was performed as described in Example 1. […]

AR [2] = test: Real-time PCR of AR gene expression, VCaP cells; format: cell-based
Excerpt: All samples were run in triplicate. The vehicle-treated sample was set to 1.

For `C[S+]([O-])CCCCN=C=S` (centres unmarked) [sulforaphane, 1-Isothiocyanato-4-methylsulfinylbutane], the “AR steady state level with simultaneous MG132 treatment” value (AR [1]; 24 hours, sulforaphane 20 μM or 300 nM TSA with 10 μM MG132) was “restored the AR steady state level close to that seen in the vehicle-treated control”, the “AR protein in the absence of MG132” value (AR [1]; 24 hours, sulforaphane 20 μM or 300 nM TSA, versus vehicle-treated cells) was “dramatic reductions” and the “AR protein levels at 24 hours” value (AR [1]; sulforaphane 15 μM and 20 μM, TSA) was “persisted”. For the same compound, the “AR transcript levels at highest doses” value (AR [2]; 15-20 μM) was “declined” and the AR transcripts (AR [2]; 24 hours, increasing doses of sulforaphane, or TSA, vehicle set to 1) was “not consistently suppressed”.
